# Entries after “also recorded” stand apart in the source; their conditions may differ.
# Assays:
# RUNX2, OCN and OPN = test: Osteogenic gene expression (RUNX2, OCN, OPN) in differentiating MSC; assay type: cell-based, human; conditions: for relative gene expression of RUNX2, OCN and OPN: differentiating MSC
# Procedure: (§1) Subsequently, the effect of chemical inhibition/stimulation of the intermediate and end products of kynurenine activation on osteogenic differentiating MSC was then characterised.
# These compounds were added to the MSC media on day one of differentiation. […] Media was changed every three days. […]
# [1] = tested on: gut-derived serotonin (GDS); conditions: Yadav et al. (2010); cited from earlier work
# [2] = tested on: mesenchymal stem cells (MSC); test: Mineralization (alizarin red staining) of osteogenic differentiating MSC; assay type: cell-based, human
# Procedure: (§2) Human mesenchymal stem cells (MSC) (BioWhittaker, Walkersville, Md., USA) were plated at a density of 5×10^5 cells per well in 150 cm^2 dishes containing MSC growth medium (GM) (BioWhittaker, Walkersville, Md., USA) with 10% fetal calf serum (FCS) and incubated at 37° C. After the cells reached 60% confluence, media was replaced with either GM or osteoblastogenesis induction media (OIM) (prepared with MSCGM, 10% FCS, […] dexamethasone, 10 mmol/L β glycerol phosphate and 50 μg/mL ascorbic acid) for 21 days. Media was changed every three days. Media obtained at the beginning of the 1st, 2nd and 3rd wk of differentiation as well as conditioned media were collected for measurement of IFNγ. Concentrations of IFNγ in the conditioned media were measured from both GM and OM treated cells using Human […] DuoSet ELISA Development Kit (R&D Systems, Minneapolis, Mich., USA). To compare between the osteogenic and the immune effect of IFNγ, Jurkat cells and human T lymphocytes were plated at a density of 5×10^5 cells per well in 150 cm^2 dishes containing RPMI media.
# as §1
# These compounds were added to the MSC media on day one of differentiation. Cells were treated for […]. Media was changed every three days. After three weeks of treatment, osteoblastogenesis and changes in osteogenic genes were quantified as described above.
# [3] = tested on: bone marrow stromal cells (BMSC) from IDO-1 KO and WT mice; test: Osteogenic differentiation of BMSC from IDO-1 KO and WT mice (alizarin red); assay type: cell-based; conditions: vs vehicle
# Procedure: One side tibiae from 9-month-old IDO-1^−/− and IDO-1^+/+ mice (n=6 per group) were flushed using a 21-gauge needle attached to a 10 ml syringe filled with Dulbecco's modified Eagle's medium (DME) (GIBCO BRL, Gaithersburg, Md., USA). The bone marrow cells were filtered through a cell strainer with a 70-micron nylon mesh (BD Bioscience, Bedford, Mass., USA) and plated in 10 cm^2 tissue culture dishes. The cells were incubated in growth medium at 37° C. with 5% humidified CO2 and isolated by their adherence to tissue culture plastic. Medium was aspirated and replaced with fresh medium every 2 to 3 days to remove non-adherent cells. The adherent MSC were grown to confluency for about 7 days and defined as MSC at passage 0, harvested with 0.25% trypsin and 1 mM EDTA for 5 min at 37° C., diluted 1:3 in growth medium, plated and grown to confluency for further expansion. After 2nd and 3rd passages, MSC were used for subsequent experiments.
# To induce differentiation, a total of 10^4 cells were diluted in osteogenic medium and plated in 24 dishes per group in the presence or absence of either quinolinic or picolinic acid. Media was aspirated and replaced with fresh osteogenic medium every 3 days. At 21 days, medium was removed and cultures were fixed in 10% v/v formol/saline solution for 5 min. Cultures were stained with Alizarin Red, which was then extracted and quantified at 570 nm.
# IDO-1 gene expression [4] = test: IDO-1 gene expression in osteogenic differentiating MSC (cDNA array / real time PCR); assay type: cell-based, human; conditions: for increase in IDO-1 expression: differentiating osteoblasts
# Procedure: as §2
# Cells were treated with either IFNγ (100 nM) or vehicle for two weeks. At week 2, total RNA was extracted from treated MSC, Jurkat T lymphocytes using an Easy-Kit mini prep (Qiagen, Valencia, Calif., USA). Generation of cDNA, fluorescent labeling, hybridization to the gene chip and data analysis were performed by the Genomics Laboratory at Ramacciotti Institute (Sydney, Australia). 12,000 human genes were examined and expressed sequences tags (ESTs) on the array Human Genome U95A (Affymetrix, Inc. Santa Clara, Calif., USA) and analyzed the results using the MicroDB™ Software (Affymetrix, Inc. Santa Clara, Calif., USA). Expression values of the differentiated and non-differentiated MSC and between MSC vs. Jurkat cells and T lymphocytes were compared using Student's t test. Genes with significant changes were then grouped depending on their known function. The biological function of each gene product was obtained from literature searches in medical databases. This experiment was repeated twice and significant changes in gene expression determined by the method of biological duplicates.
# A cDNA gene array analysis was performed in MSC induced to differentiate into osteoblasts using osteogenic media for 7 days while being treated with an anabolic dose of IFNγ (100 nM) in vitro. A comparison of was made of cDNA data obtained from differentiating MSC, human primary T-lymphocytes and Jurkat cells either untreated or treated with IFNγ (FIG. 1). The aims of this approach were not only to characterise the osteogenic effect of IFNγ on osteogenic differentiating MSC, but also to compare the osteogenic vs. the immunogenic profile of IFNγ. […]
# [5] = rats; cited from earlier work
# TPH-1 = test: Immunohistochemistry of TPH-1 in gut and bone of IFNγ-treated mice; assay type: in vivo, C57BL/6 mice; conditions: IFNγ 2,000 IU, 3 times a week for 6 weeks
# Procedure: (§3) Animals were purchased from Jackson Laboratories (Bar Harbor, Me., USA). 8-week-old virgin female C57BL/6 mice (Charles River Laboratories, Quebec, Canada) were used to study the effect of exogenous administration of IFN-γ on bone and gut expression of IDO-1 and TPH-1. Bilateral ovariectomies (OVX) were performed under general anesthesia. Another group of animals was sham-operated (SHAM), in which ovaries were exteriorized but replaced intact. Two weeks after surgery, mice (OVX and SHAM) received intraperitoneal injections of 2000 IU of IFN-γ (R&D Systems, Inc., Minneapolis, Minn., USA) or vehicle (PBS) three times weekly for a total of 6 weeks. Mice were housed in cages in a limited-access room. Animal husbandry adhered to Canadian Council on Animal Care Standards, and all protocols were approved by the McGill University Health Center Animal Care Utilization Committee. […]
# (§4) For immunohistochemistry, gut and bone sections were incubated overnight at 4° C. with a goat polyclonal antibody IgG against either IDO-1 or TPH-1 (Santacruz Biotechnology Inc. Santa Cruz Calif., USA), Primary antibody was detected by incubation with an anti-goat IgG secondary antibody conjugated with horseradish peroxidase (1:300 in BSA 1%, Sigma-Aldrich, St. Louis, Mo., USA)]. […] Photographs were taken under an Olympus fluorescence microscope controlled by an IPLab system. […]
# IDO-1 [6] = test: Kynurenine/tryptophan ratio by HPLC in differentiating MSC; assay type: cell-based, human; conditions: MSC treated with IFNγ
# IDO-1 [7] = test: Immunohistochemistry of IDO-1 in gut and bone of IFNγ-treated mice; assay type: in vivo, C57BL/6 mice; conditions: IFNγ 2,000 IU, 3 times a week for 6 weeks
# Procedure: as §3, §4
# TPH-1 gene expression = TPH-1 gene expression in IFNγ-treated immune cells (Jurkat cells, T lymphocytes); assay type: cell-based, human; conditions: immune cells treated with IFNγ
# Procedure: as §2, with “To compare between the osteogenic and the immune effect of IFNγ, Jurkat cells and human T lymphocytes were plated at a density of 5×10^5 cells per well in 150 cm^2 dishes containing RPMI media.” left out
# (§5) Cells were treated with either IFNγ (100 nM) or vehicle for two weeks. […] 12,000 human genes were examined and expressed sequences tags (ESTs) on the array Human Genome U95A (Affymetrix, Inc. Santa Clara, Calif., USA) and analyzed the results using the MicroDB™ Software (Affymetrix, Inc. Santa Clara, Calif., USA). […] This experiment was repeated twice and significant changes in gene expression determined by the method of biological duplicates. […]
# gut derived serotonin = test: Gut derived serotonin (GDS) in gut of IFNγ-treated mice; assay type: in vivo, C57BL/6 mice; conditions: IFNγ 2,000 IU, 3 times a week for 6 weeks
# Procedure: Animals were purchased from Jackson Laboratories (Bar Harbor, Me., USA). 8-week-old virgin female C57BL/6 mice (Charles River Laboratories, Quebec, Canada) were used to study the effect of exogenous administration of IFN-γ on bone and gut expression of IDO-1 and TPH-1. Bilateral ovariectomies (OVX) were performed under general anesthesia. Another group of animals was sham-operated (SHAM), in which ovaries were exteriorized but replaced intact. Two weeks after surgery, mice (OVX and SHAM) received intraperitoneal injections of 2000 IU of IFN-γ (R&D Systems, Inc., Minneapolis, Minn., USA) or vehicle (PBS) three times weekly for a total of 6 weeks. Mice were housed in cages in a limited-access room. Animal husbandry adhered to Canadian Council on Animal Care Standards, and all protocols were approved by the McGill University Health Center Animal Care Utilization Committee.
# One side femur and proximal gut from each animal in each group was removed at the time of euthanization. Bone was fixed in 70% ethanol, dehydrated, and embedded undecalcified in methyl methacrylate (J-T Baker, Phillipsburg, N.J., USA). At 50-μm intervals, longitudinal sections 5- and 8-μm thick were cut using a Polycut-E microtome (Reichert-Jung Leica, Heerbrugg, Switzerland). Gut was fixed and embedded in paraffin for future analysis. Gut sections were obtained as described above.
# serotonin = test: Serotonin concentrations in MSC supernatants (ELISA); assay type: cell-based, human; conditions: IFNγ treated vs untreated cells
# Excerpt: In addition, there was no difference in the serotonin concentrations (measured using ELISA) in the supernatants obtained from osteoblastogenesis induction media (OIM)- and IFNγ-treated vs. untreated cells. […] This effect is independent of serotonin concentration in the media.
# IDO-1 gene expression [8] = test: IDO-1 gene expression in IFNγ-treated immune cells (Jurkat cells, T lymphocytes); assay type: cell-based, human; conditions: immune cells treated with IFNγ
# Procedure: as §2, with “To compare between the osteogenic and the immune effect of IFNγ, Jurkat cells and human T lymphocytes were plated at a density of 5×10^5 cells per well in 150 cm^2 dishes containing RPMI media.” left out
# as §5
# [9] = 1000 nM quinolinic acid, 14 days, vs untreated cells
molecule,measurement,setting,value
"Nc1ccccc1C(=O)CC(N)C(=O)O [L-kynurenine, 2-amino-4-(2-aminophenyl)-4-oxo-butanoic acid, reference compound]","relative gene expression of RUNX2, OCN and OPN","RUNX2, OCN and OPN",not
Nc1nc(OC(c2ccc(-c3cccc(F)c3)cc2)C(F)(F)F)cc(-c2ccc(C[C@H](N)C(=O)O)cc2)n1 (stereo partly shown) [LP533401],bone formation / osteoporosis in OVX mice,[1],stimulates bone formation and recues OVX mice from osteoporosis
"O=C(O)c1cccnc1C(=O)O [QA, 2,3-Pyridinedicarboxylic acid]",osteoblastogenesis / mineralisation (alizarin red),"[2]; MSC in OIM, 2 weeks",accelerated mineralisation; also recorded: stimulate osteoblastogenesis
same,mineralisation (alizarin red staining),[3],higher levels of mineralisation
same,relative expression (RE) RUNX2,"RUNX2, OCN and OPN; [9]",3 fold
same,relative expression (RE) osteopontin,"RUNX2, OCN and OPN; [9]",6 fold
same,"relative gene expression of RUNX2, OCN and OPN","RUNX2, OCN and OPN",increased
"CN[C@H](Cc1c[nH]c2ccccc12)C(=O)O [methyl-D-tryptophan, reference compound]",RE of IDO-1,"IDO-1 gene expression [4]; day 14 of differentiation, in the presence of inhibitor, vs control",0.02
same,mineralization measured by alizarin red,[2]; inhibition of IDO-1,significant decrease
same,osteogenic genes expression,"RUNX2, OCN and OPN; with IDO-1 inhibition",reduced
CC[C@H](C)[C@H](NC(=O)[C@H](CCC(=O)O)NC(=O)[C@H](CO)NC(=O)[C@@H](NC(=O)[C@@H](N)CO)C(C)C)C(=O)N[C@@H](CCC(N)=O)C(=O)N[C@@H](CC(C)C)C(=O)N[C@@H](CCSC)C(=O)N[C@@H](Cc1cnc[nH]1)C(=O)N[C@@H](CC(N)=O)C(=O)N[C@@H](CC(C)C)C(=O)NCC(=O)N[C@@H](CCCCN)C(=O)N[C@@H](Cc1cnc[nH]1)C(=O)N[C@@H](CC(C)C)C(=O)N[C@@H](CC(N)=O)C(=O)N[C@@H](CO)C(=O)N[C@@H](CCSC)C(=O)N[C@@H](CCC(=O)O)C(=O)N[C@@H](CCCN=C(N)N)C(=O)N[C@H](C(=O)N[C@@H](CCC(=O)O)C(=O)N[C@@H](Cc1c[nH]c2ccccc12)C(=O)N[C@@H](CC(C)C)C(=O)N[C@@H](CCCN=C(N)N)C(=O)N[C@@H](CCCCN)C(=O)N[C@@H](CCCCN)C(=O)N[C@@H](CC(C)C)C(=O)N[C@@H](CCC(N)=O)C(=O)N[C@@H](CC(=O)O)C(=O)N[C@H](C(=O)N[C@@H](Cc1cnc[nH]1)C(=O)N[C@@H](CC(N)=O)C(=O)N[C@@H](Cc1ccccc1)C(=O)O)C(C)C)C(C)C [teriparatide],tumour growth,[5],cause malignant tumour growth (osteogenic carcinoma)
"IFNγ: interferon gamma, stimulator of IDO-1",expression of TPH-1 in gut and bone,TPH-1,remains unaltered
same,IDO-1 gene expression,"IDO-1 gene expression [4]; IFNγ 100 nM, differentiating MSC in osteogenic media 7 days, vs untreated MSC and immune cells",12 fold
same,increase in IDO-1 expression,IDO-1 gene expression [4]; 14th day,13 fold
same,increase in IDO-1 expression,IDO-1 gene expression [4]; after 7 days,36 fold
same,mineralization (alizarin red staining),"[2]; IFNγ 100 ng/ml, one week of osteogenic differentiation, vs vehicle",higher levels of mineralization
same,kynurenine/tryptophan ratio (tryptophan degradation),IDO-1 [6],higher kynurenine/tryptophan ratio
same,levels of IDO-1 in gut and bone marrow,IDO-1 [7],higher levels of IDO-1
same,TPH-1 gene expression,TPH-1 gene expression,high levels
same,GDS in the gut,gut derived serotonin,remains unaltered
same,serotonin concentrations in the supernatants,serotonin,No changes
same,IDO-1 gene expression,IDO-1 gene expression [8],without affecting

# Source: patent US9642897B2, “Treatment of bone diseases” (THE UNIVERSITY OF SYDNEY, priority 2011, dated 2017)
